The target of this assay is T1, Trypanosoma cruzi trans-sialidase (TcTS) (Trypanosoma cruzi, UniProt Q26966).
T1 construct: 6xHis (N); made in house; host or cells: E. coli TOP10 or BL21(DE3)
Put plainly: Affinity of TcTS for the sialic acid donor substrates (kinetic incubations with lactose as acceptor). Type of assay: biochemical. To be noted: TcTS 4.5 mU/ml; 0.1-10.0 mM 4MU-Neu5Ac as donor; 1 mM lactose as acceptor. As for the experimental part:
In kinetic experiments with partially purified TcTS, 4MU-Neu5Ac or industrially available κ-casein-derived glycomacropeptide (GMP) as donors and lactose as acceptor, the formation of 3′SL was quantitatively determined after 15 and 30 min of incubation, making use of high-pH anion-exchange chromatography with pulsed amperometric detection (HPAEC-PAD). For both donors, the optimal temperature for the transfer reaction, deduced from a series of temperatures ranging from 15-50° C., with increments of 5° C., turned out to be 25° C., which is similar to the optimal temperature reported in literature (Scudder et al., J. Biol. Chem. 268: 9886-9891, 1993).
The affinity of TcTS for the sialic acid donor substrates 4MU-Neu5Ac and GMP was tested by performing incubations (4.5 mU/ml) with an appropriate range of these substrates and a fixed concentration of lactose as acceptor.

T1 sequence (Q26966 entry or part of it): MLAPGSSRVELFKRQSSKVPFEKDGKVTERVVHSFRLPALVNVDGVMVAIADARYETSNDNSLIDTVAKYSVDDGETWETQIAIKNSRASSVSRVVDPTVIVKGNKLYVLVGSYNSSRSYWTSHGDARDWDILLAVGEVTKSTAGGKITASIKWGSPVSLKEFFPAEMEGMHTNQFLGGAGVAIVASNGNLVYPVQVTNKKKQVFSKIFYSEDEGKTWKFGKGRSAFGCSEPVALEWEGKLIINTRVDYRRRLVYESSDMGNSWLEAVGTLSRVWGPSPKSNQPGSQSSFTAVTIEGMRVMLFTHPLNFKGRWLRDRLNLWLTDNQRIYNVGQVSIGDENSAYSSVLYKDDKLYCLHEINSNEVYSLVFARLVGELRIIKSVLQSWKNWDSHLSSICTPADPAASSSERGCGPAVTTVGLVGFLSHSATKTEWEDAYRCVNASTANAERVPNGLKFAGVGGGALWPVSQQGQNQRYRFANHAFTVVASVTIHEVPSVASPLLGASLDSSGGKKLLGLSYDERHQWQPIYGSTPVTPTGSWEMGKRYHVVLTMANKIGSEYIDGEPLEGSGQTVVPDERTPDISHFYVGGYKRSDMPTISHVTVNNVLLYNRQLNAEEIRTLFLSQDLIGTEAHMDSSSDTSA

For orientation: Km means the concentration of substrate that gives half-maximal velocity. With `CC(=O)N[C@H]1[C@H]([C@H](O)[C@H](O)CO)OC(Oc2ccc3c(C)cc(=O)oc3c2)(C(=O)O)C[C@@H]1O` (stereo partly drawn) [4MU-Neu5Ac, 2′-(4-methylumbelliferyl)-α-N-acetylneuraminic acid], the Michaelis constant (Km) stood at 1650 µM and the Vmax is listed as 1.5 U/mg.

The values above are taken from patent US9539270B2, “Methods for providing sialylated oligosaccharides” (priority 2011, dated 2017).
